Laboratory results from ChEMBL document CHEMBL4118055, “Chemoenzymatic Synthesis and α-Glucosidase Inhibitory Activity of Dimeric Neolignans Inspired by Magnolol” (J Nat Prod, 2017).

Experiments:
[1] = Inhibition of yeast alpha-glucosidase using p-nitrophenyl-alpha-glucopyranoside as substrate measured after 30 mins; design: species or system Saccharomyces cerevisiae
Saccharomyces cerevisiae = assay: Inhibition of yeast alpha-glucosidase at 1.5 uM using p-nitrophenyl-alpha-glucopyranoside as substrate measured after 30 mins relative to control
[2] = Competitive-inhibition of yeast alpha-glucosidase using varying levels of p-nitrophenyl-alpha-glucopyranoside as substrate incubated for 20 mins measured at 1 min interval by Lineweaver-burk plot analysis; design: species or system Saccharomyces cerevisiae

Row | SMILES | IC50 [1] [nM] | inhibition (Saccharomyces cerevisiae) [%] | Ki [2] [nM]
1 | COc1cc(CCO)cc(-c2cc(CCO)cc(O)c2O)c1O | > 100000 |  | 
2 | OCCc1ccc(O)c(-c2cc(CCO)ccc2O)c1 | 860 | 76.9 | 
3 | C[C@H]1O[C@H](O[C@H]2[C@H](O)[C@@H](O)[C@@H](O[C@H]3[C@H](O)[C@@H](O)C(O)O[C@@H]3CO)O[C@@H]2CO)[C@H](O)[C@@H](O)[C@@H]1N[C@H]1C=C(CO)[C@@H](O)[C@H](O)[C@H]1O (stereo partly specified) [ACARBOSE] | 270000 | 0.7 | 
4 | C=CCc1ccc(O)c(-c2ccc(O)c(CC=C)c2)c1 [HONOKIOL] | 23000 | 3.9 | 
5 | COc1cc(CCOC(C)=O)cc(-c2cc(CCOC(C)=O)cc(OC)c2O)c1O | 1100 | 64.5 | 
6 | C=CCc1ccc(O)c(-c2cc(CC=C)ccc2O)c1 [MAGNOLOL] | 2000 | 29.8 | 
7 | C=CCc1ccc(O)c(-c2cc(CC=C)cc(O)c2O)c1 | 490 | 97.6 | 
8 | COc1cc(CCO)cc(-c2cc(CCO)cc(OC)c2O)c1O | > 100000 |  | 
9 | O=c1c(O)c(-c2ccc(O)c(O)c2)oc2cc(O)cc(O)c12 [QUERCETIN] | 14200 | 5.3 | 
10 | OCCc1cc(O)c(O)c(-c2cc(CCO)cc(O)c2O)c1 | 4100 | 18.2 | 
11 | C=CCc1cc(O)c(O)c(-c2cc(CC=C)cc(O)c2O)c1 | 2100 | 36.7 | 
12 | CC(=O)OCCc1ccc(O)c(-c2cc(CCOC(C)=O)ccc2O)c1 | 150 | 98.9 | 860
13 | COc1cc(CCOC(C)=O)cc(-c2cc(CCOC(C)=O)cc(O)c2O)c1O | 3300 | 21.3 | 
14 | C=CCc1cc(OC)c(O)c(-c2cc(CC=C)cc(OC)c2O)c1 | 2000 | 46.7 | 
15 | CC(=O)OCCc1cc(O)c(O)c(-c2cc(CCOC(C)=O)cc(O)c2O)c1 | 2900 | 31.4 | 
16 | C=CCc1cc(O)c(O)c(-c2cc(CC=C)cc(OC)c2O)c1 | 500 | 98 | 
